Columns and labels:
Serotonin 5-HT1B = Serotonin 5-HT1B (Homo sapiens, UniProt P28222); assay: Receptor binding, 5-HT1B
Serotonin 5-HT1D = Serotonin 5-HT1D (Homo sapiens, UniProt P28221); assay: Receptor binding, 5-HT1D
Serotonin 5-HT1E = Serotonin 5-HT1E (Homo sapiens, UniProt P28566); assay: Receptor binding, 5-HT1E
Serotonin 5-HT2A = Serotonin 5-HT2A (Homo sapiens, UniProt P28223); assay: Receptor binding, 5-HT2A
Serotonin 5-HT2B = Serotonin 5-HT2B (Homo sapiens, UniProt P41595); assay: Receptor binding, 5-HT2B
Serotonin 5-HT3 = Serotonin 5-HT3 (Homo sapiens, UniProt P46098); assay: Receptor binding, 5-HT3
Serotonin 5-HT5A = Serotonin 5-HT5A (Homo sapiens, UniProt P47898); assay: Receptor binding, 5-HT5A
Serotonin 5-HT6 = Serotonin 5-HT6 (Homo sapiens, UniProt P50406); assay: Receptor binding, 5-HT6
Serotonin 5-HT7 = Serotonin 5-HT7 (Homo sapiens, UniProt P34969); assay: Receptor binding, 5-HT7
Dopamine D1 = Dopamine D1 (Homo sapiens, UniProt P21728); assay: Receptor binding, D1
Dopamine D2 = Dopamine D2 (Homo sapiens, UniProt P14416); assay: Receptor binding, D2
Dopamine D4 = Dopamine D4 (Homo sapiens, UniProt P21917); assay: Receptor binding, D4
α-Adrenergic α1B = α-Adrenergic α1B (Homo sapiens, UniProt P35368); assay: Receptor binding, α1B
α-Adrenergic α2A = biological target: T1, α-Adrenergic α2A (Homo sapiens, UniProt P08913); assay: Receptor binding, α2A
T1 sequence (P08913 1-465): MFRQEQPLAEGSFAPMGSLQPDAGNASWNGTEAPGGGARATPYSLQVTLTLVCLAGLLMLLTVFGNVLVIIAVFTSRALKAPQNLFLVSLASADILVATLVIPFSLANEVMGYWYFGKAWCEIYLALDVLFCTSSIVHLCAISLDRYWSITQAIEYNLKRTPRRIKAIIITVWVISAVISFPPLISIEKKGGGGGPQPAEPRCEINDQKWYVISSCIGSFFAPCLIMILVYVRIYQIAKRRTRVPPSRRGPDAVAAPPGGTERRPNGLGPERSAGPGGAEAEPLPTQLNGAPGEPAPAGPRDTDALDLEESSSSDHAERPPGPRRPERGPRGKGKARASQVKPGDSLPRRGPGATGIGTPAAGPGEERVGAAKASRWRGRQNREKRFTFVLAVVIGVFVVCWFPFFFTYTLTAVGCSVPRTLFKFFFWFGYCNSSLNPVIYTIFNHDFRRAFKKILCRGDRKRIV

β-Adrenergic β1 = β-Adrenergic β1 (Homo sapiens, UniProt P08588); assay: Receptor binding, β1
β-Adrenergic β2 = β-Adrenergic β2 (Homo sapiens, UniProt P07550); assay: Receptor binding, β2
β-Adrenergic β3 = β-Adrenergic β3 (Homo sapiens, UniProt P13945); assay: Receptor binding, β3
Histamine H1 = Histamine H1 (Homo sapiens, UniProt P35367); assay: Receptor binding, H1; settings: H1
Histamine H2 = Histamine H2 (Homo sapiens, UniProt P25021); assay: Receptor binding, H2
Sigma σ1 = Sigma σ1 (Homo sapiens, UniProt Q99720); assay: Receptor binding, σ1
Sigma σ2 = Sigma σ2 (Homo sapiens, UniProt Q5BJF2); assay: Receptor binding, σ2
Opioid δ = Opioid δ (Homo sapiens, UniProt P41143); assay: Receptor binding, opioid δ
Opioid κ = Opioid κ (Homo sapiens, UniProt P41145); assay: Receptor binding, opioid κ
Muscarinic M1 = Muscarinic M1 (Homo sapiens, UniProt P11229); assay: Receptor binding, M1
Muscarinic M2 = Muscarinic M2 (Homo sapiens, UniProt P08172); assay: Receptor binding, M2
Muscarinic M3 = Muscarinic M3 (Homo sapiens, UniProt P20309); assay: Receptor binding, M3
Muscarinic M4 = Muscarinic M4 (Homo sapiens, UniProt P08173); assay: Receptor binding, M4
Dopamine transporter = Dopamine transporter (Homo sapiens, UniProt Q01959); assay: Receptor binding, dopamine transporter; settings: Transporters: Dopamine
[1] = biological target: Norepinephrine transporter (Homo sapiens, UniProt P23975); assay: Receptor binding, norepinephrine transporter; settings: Transporters: Norepinephrine
dopamine receptors = assay: Receptor binding, dopamine receptors; settings: any of the dopamine receptors, summary of Table 1
[2] = tested on: mice (129SV/PAS background); assay: MDMA-induced motor behavior (locomotor activity); assay type: in vivo; settings: FIG. 4
Protocol: In this in vivo study, locomotor activity was measured in a circular corridor with four infrared beams placed at every 90° (Imetronic, France). Counts were incremented by consecutive interruption of two adjacent beams (i.e. mice moving through one-quarter of the corridor). DDD-024 was tested in MDMA-induced motor behavior at 5, 10 and 20 mg/kg, ip, in mice (129SV/PAS background, 8 week old, Charles River Laboratories). The animals were injected with vehicle and individually placed in the activity box for 30 min during 3 days consecutively for habituation before experiments. Mice received vehicle or DDD-024 (5-20 mg/kg, i.p.) injection 30 min before MDMA injection (10 mg/kg).

rats = assay: Forced swim test (depression model); assay type: in vivo; settings: 10 mg/kg i.p., 1 hour before test, versus imipramine 10 mg/kg, FIG. 5

Chain of Serotonin 5-HT1D (P28221 whole entry): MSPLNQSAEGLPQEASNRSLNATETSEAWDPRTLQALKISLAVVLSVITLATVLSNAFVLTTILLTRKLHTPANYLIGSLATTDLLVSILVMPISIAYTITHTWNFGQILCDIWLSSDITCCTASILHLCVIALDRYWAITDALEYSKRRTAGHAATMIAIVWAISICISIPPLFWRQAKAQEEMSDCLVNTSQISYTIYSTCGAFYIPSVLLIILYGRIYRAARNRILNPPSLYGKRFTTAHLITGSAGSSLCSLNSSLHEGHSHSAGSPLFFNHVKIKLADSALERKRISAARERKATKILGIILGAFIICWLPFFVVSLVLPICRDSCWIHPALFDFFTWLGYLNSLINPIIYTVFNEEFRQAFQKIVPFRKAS
Chain of Serotonin 5-HT6 (P50406 whole entry): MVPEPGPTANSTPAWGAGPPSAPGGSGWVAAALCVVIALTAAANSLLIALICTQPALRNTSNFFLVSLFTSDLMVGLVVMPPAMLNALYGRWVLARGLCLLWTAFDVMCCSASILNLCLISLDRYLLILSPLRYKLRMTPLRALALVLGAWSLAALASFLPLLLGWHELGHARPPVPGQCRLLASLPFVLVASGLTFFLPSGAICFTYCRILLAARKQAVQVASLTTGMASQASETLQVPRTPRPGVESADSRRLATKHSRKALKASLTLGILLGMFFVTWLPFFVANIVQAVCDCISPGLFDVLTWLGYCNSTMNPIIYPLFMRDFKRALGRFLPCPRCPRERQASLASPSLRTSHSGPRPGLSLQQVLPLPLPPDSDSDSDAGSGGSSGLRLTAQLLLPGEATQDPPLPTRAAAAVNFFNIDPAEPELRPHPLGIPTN
Chain of Serotonin 5-HT7 (P34969 whole entry): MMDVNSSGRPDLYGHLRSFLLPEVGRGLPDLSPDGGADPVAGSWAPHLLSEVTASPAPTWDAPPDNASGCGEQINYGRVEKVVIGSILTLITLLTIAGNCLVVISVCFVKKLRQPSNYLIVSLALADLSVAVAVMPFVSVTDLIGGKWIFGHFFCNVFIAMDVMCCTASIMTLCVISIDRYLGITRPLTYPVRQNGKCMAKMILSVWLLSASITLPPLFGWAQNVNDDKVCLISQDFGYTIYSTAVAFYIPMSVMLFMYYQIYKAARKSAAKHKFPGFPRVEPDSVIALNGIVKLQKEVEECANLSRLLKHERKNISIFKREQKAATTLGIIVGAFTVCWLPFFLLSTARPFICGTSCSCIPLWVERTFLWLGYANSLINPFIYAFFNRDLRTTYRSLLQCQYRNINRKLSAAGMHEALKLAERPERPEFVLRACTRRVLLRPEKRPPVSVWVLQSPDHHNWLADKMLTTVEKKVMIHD
Chain of Sigma σ2 (Q5BJF2 whole entry): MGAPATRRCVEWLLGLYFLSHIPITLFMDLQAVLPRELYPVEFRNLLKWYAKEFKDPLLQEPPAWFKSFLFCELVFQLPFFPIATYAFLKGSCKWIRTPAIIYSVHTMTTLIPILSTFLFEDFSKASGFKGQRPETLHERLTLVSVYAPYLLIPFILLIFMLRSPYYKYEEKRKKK
Chain of Opioid κ (P41145 whole entry): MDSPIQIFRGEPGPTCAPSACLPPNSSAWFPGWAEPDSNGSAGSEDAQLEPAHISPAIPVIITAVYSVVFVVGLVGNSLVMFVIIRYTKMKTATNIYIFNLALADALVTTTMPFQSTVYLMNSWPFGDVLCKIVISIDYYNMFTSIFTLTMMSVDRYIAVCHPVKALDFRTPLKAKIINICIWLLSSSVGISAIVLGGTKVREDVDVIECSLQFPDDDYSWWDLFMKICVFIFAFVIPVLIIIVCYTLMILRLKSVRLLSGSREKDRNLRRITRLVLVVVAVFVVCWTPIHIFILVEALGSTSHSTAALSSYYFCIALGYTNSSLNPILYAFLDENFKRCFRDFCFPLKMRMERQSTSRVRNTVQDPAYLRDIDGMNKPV
Chain of Serotonin 5-HT1E (P28566 whole entry): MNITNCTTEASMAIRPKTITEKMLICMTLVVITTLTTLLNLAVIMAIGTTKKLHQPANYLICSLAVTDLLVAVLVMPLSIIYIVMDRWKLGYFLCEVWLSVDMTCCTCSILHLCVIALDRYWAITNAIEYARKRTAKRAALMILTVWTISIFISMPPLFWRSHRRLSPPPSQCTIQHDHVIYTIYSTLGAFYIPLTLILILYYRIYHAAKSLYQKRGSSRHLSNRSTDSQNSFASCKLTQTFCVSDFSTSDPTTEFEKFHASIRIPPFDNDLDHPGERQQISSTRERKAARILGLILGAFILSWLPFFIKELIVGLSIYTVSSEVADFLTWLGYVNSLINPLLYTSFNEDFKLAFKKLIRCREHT
Chain of β-Adrenergic β2 (P07550 whole entry): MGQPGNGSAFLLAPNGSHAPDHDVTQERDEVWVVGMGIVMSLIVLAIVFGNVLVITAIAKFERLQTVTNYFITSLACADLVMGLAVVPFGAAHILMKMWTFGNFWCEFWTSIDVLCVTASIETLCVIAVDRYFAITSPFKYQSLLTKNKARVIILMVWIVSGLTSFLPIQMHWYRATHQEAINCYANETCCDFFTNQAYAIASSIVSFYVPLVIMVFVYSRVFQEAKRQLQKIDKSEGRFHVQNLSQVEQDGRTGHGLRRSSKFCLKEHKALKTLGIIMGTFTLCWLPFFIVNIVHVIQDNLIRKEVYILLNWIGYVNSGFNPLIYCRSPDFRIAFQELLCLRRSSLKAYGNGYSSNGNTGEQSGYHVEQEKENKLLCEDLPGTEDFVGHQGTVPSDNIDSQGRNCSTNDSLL
Chain of Muscarinic M1 (P11229 whole entry): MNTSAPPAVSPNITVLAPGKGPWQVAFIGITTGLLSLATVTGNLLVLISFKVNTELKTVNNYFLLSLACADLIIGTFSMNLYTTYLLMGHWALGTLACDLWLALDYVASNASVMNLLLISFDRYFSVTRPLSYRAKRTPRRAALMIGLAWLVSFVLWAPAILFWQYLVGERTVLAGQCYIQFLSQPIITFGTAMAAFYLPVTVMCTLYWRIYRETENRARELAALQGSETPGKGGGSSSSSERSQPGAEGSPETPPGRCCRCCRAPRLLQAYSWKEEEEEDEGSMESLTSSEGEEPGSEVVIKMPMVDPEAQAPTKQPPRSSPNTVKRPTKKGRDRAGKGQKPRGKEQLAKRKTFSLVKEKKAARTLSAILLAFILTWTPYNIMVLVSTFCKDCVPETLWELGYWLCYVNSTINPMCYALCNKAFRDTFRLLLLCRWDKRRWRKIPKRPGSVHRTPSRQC
Chain of Dopamine transporter (Q01959 whole entry): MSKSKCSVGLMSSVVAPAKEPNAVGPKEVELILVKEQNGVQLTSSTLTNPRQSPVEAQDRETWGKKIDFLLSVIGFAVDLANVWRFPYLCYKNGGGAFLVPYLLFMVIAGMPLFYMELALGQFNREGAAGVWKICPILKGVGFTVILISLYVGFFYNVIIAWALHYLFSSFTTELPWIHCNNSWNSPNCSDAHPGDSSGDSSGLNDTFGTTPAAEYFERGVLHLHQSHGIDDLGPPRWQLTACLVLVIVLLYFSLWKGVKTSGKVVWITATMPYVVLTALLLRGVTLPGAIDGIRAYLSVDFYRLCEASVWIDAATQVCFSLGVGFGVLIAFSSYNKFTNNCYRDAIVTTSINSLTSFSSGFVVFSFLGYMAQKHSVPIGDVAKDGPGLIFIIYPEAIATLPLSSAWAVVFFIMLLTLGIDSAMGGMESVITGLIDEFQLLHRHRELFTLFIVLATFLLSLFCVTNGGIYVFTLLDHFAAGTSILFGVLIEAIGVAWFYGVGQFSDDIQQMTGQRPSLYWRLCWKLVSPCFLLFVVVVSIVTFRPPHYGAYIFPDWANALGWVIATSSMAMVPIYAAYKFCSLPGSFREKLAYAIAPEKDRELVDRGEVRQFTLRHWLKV
Chain of Histamine H2 (P25021 whole entry): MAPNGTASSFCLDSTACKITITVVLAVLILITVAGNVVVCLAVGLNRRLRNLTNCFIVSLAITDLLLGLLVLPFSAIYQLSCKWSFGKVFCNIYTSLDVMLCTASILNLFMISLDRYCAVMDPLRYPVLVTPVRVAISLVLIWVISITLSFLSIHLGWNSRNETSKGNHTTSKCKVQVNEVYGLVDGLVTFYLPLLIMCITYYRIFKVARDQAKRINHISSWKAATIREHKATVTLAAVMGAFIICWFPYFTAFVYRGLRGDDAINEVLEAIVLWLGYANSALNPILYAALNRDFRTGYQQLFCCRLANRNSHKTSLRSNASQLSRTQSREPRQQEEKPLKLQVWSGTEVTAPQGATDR
Chain of Dopamine D1 (P21728 whole entry): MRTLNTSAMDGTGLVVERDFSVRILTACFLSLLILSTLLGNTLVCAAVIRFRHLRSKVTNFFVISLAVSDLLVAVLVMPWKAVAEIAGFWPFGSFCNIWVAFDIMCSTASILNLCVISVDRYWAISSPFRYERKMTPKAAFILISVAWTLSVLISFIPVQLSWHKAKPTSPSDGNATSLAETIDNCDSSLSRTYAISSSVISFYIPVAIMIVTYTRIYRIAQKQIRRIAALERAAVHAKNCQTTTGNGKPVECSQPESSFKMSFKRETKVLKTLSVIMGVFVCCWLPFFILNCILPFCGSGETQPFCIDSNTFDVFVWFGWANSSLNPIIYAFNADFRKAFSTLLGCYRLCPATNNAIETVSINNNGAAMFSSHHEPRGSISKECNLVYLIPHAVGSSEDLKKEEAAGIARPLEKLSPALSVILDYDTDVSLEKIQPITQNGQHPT
Chain of Serotonin 5-HT5A (P47898 whole entry): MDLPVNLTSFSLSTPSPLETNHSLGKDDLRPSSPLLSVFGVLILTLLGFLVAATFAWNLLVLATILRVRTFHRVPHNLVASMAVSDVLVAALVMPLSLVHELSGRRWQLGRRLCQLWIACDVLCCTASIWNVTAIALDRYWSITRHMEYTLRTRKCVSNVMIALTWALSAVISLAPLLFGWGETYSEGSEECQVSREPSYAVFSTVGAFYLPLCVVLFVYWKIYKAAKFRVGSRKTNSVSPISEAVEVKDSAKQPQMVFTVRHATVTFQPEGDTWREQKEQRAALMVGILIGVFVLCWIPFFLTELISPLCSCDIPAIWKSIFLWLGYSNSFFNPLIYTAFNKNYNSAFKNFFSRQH

In the case of `CN1CCc2c(c3cccc4c3n2Cc2ccccc2O4)C1` [Compound 13b], the Ki (Serotonin 5-HT1B) is reported as 738 nM, the Ki (Serotonin 5-HT1D) is reported as 385 nM and the “binding, in words” value (Serotonin 5-HT1D; summary of Table 1) is reported as “moderate binding”. For the same compound, the Ki (Serotonin 5-HT1E) was > 10000 nM, the Ki (Serotonin 5-HT2A) was 927 nM and the Ki (Serotonin 5-HT2B) was 195 nM. The Ki (Serotonin 5-HT3) was > 10000 nM, the Ki (Serotonin 5-HT5A) was 1910 nM and the Ki (Serotonin 5-HT6; 5-HT6) was 189 nM. For the same compound, the “binding, in words” value (Serotonin 5-HT6; 5-HT6, text summary of Table 1) was “moderate binding”, the Ki (Serotonin 5-HT7; 5-HT7) was 258 nM and the “binding, in words” value (Serotonin 5-HT7; 5-HT7, text summary of Table 1) was “moderate binding”. For the same compound, the Ki (Dopamine D1) was > 10000 nM, the Ki (Dopamine D2) was > 10000 nM and the Ki (Dopamine D4) was > 10000 nM. For the same compound, the Ki (α-Adrenergic α1B) was > 10000 nM, the Ki (α-Adrenergic α2A) was 1460 nM and the Ki (β-Adrenergic β1) was > 10000 nM. For the same compound, the Ki (β-Adrenergic β2) was > 10000 nM, the Ki (β-Adrenergic β3) was > 10000 nM and the Ki (Histamine H1) was 733 nM. It also gave a Ki (Histamine H2) of 4730 nM, a Ki (Sigma σ1) of 220 nM and a Ki (Sigma σ2; σ2) of 1810 nM. The “binding, in words” value (Sigma σ2; σ2, text summary of Table 1) was “moderate binding”, the Ki (Opioid δ) was 310 nM and the Ki (Opioid κ) was > 10000 nM. For the same compound, the Ki (Muscarinic M1) was > 10000 nM, the Ki (Muscarinic M2) was > 10000 nM and the Ki (Muscarinic M3) was > 10000 nM. For the same compound, the Ki (Muscarinic M4) was > 10000 nM, the Ki (Dopamine transporter) was > 10000 nM and the Ki [1] was 1950 nM. The “binding, in words” value (dopamine receptors) was “neither of the two compounds 13a and 13b binds significantly”, the “increase in motor activity elicited by MDMA” value ([2]; 10 mg/kg i.p. 30 min before MDMA 10 mg/kg) was “partially” and the “increase in motor activity elicited by MDMA” value ([2]; 20 mg/kg i.p. 30 min before MDMA 10 mg/kg) was “completely blocked”. For the same compound, the “antidepressive activity (immobility, forced swim test)” value (rats) was “comparable to imipramine”.
